US20260091138A1, “VARIANTS OF COAGULATION FACTOR VIII AND USES THEREOF” (Seattle Children’s Hospital d/b/a Seattle Children’s …, priority 2022, published 2026)
Entries after “also recorded” stand apart in the source; their conditions may differ. No end group written: not given here. Man6GlcNAc2 = high-mannose N-glycan (six mannose on two GlcNAc); GlcNAc = N-acetyl-glucosamine (single GlcNAc)

Key:
[1] = system: CD4+ T-cells in splenocytes isolated from FVIII-primed HA mice; assay: FVIII-specific CD4+ T-cell proliferation assay; format: cell-based, mouse; details: for effect of peptide on CD4+ T-cell proliferation (in words): peptides 0.1 μM to 10 μM; for CD4+ T-cell proliferation: 96 hours, background subtracted
Procedure: (§1) CD4^+ T-cell Proliferation Assay. Mice with high titer anti-FVIII inhibitors were generated as described in the Supplemental Methods. Mouse splenocytes were isolated and stained with BD Horizon™ violet cell proliferation dye 450 (VPD450) (BD Biosciences). The labeled splenocytes were cultured and stimulated by adding FVIII as a positive proliferation control, Factor IX as a nonspecific antigen control, or peptides, either glycosylated or non-glycosylated, corresponding to site N2118. Mannan (0.1, 1, and 10 μM, respectively) was added in mannan inhibition experiments. After 96 hours, cells were stained with anti-mouse CD4 and Fixable Viability Stain (Fisher Scientific) and analyzed by flow cytometry (BDT LSR II analyzer (Fisher Scientific)). The enhancement of proliferation was calculated by subtracting the background levels in non-stimulated cells.
Generation of hemophilia A mice with high-titer inhibitors. Anti-FVIII inhibitor mice were generated by priming the mice with 3 units (U) of recombinant full-length FVIII in 200 uL PBS 3× a week for four weeks. Mice were then sacrificed on week 5 for spleen collection or boosted one-week prior to spleen collection. Blood was drawn via retro-orbital bleed on the day of sacrifice in the same manner as before in order to measure IgG titer via enzyme-linked immunosorbent assay (ELISA).

HA mice [2] = assay: FVIII functional activity (aPTT) and FVIII:Ag after hydrodynamic injection of BDD-FVIII and glycosylation variant plasmids; format: in vivo, mouse; details: one-week post hydrodynamic plasmid injection, average ± SD
Procedure: (§2) Delivery of plasmids carrying BDD-FVIII and its glycosylation variants genes into HA mice. Male HA mice with a FVIII exon 16 knockout in an Sv129/BL6 mixed background between the ages of 8-14 weeks were used in all experiments. Mice were injected with liver-specific plasmids carrying BDD-FVIII and its glycosylation variants genes (FIG. 2) via hydrodynamic injection at a concentration of 25 μg/mL and a volume (ml) equal to 9% the body weight of the mouse (g). A second challenge (SC) of the same plasmids via hydrodynamic injection was performed on Day 86 to elicit robust secondary immune responses. Blood was collected by retro-orbital bleed in one-tenth volume of 3.8% sodium citrate periodically following plasmid injections.
FVIII antigen (FVIII:Ag) ELISA. FVIII:Ag levels in mouse plasma post hydrodynamic injection with FVIII plasmids were determined by ELISA using murine anti-FVIII antibody (GMA-8020, Green Mountain Antibody, Burlington, VT) and biotin-labeled murine anti-FVIII antibody (GMA-8015, Green Mountain Antibody, Burlington, VT).

HA mice [3] = assay: Total anti-FVIII IgG ELISA after plasmid-mediated gene transfer; format: in vivo, mouse
Procedure: as §2
Supplemental Methods. Measurement of total anti-FVIII IgG. 96 well flat bottom ELISA plates (Corning, Kennebunk, ME) were coated overnight at 4° C. with 0.44 U FVIII/well in coating buffer. Plates were then incubated with blocking buffer (1×Tris-Buffered Saline (TBS), 0.1% Tween-20, and 20% non-fat milk for 1 hour at 37° C. Plates were washed three times with wash buffer I 1×TBS and 0.1% Tween-20) between incubation steps. […] Concentrations of anti-FVIII IgG were evaluated by interpolation against the linear range on a standard curve created using mouse isotype control (Thermo Scientific) that was run in duplicate alongside samples on all plates.

HA mice [4] = assay: Anti-FVIII inhibitor titers by Bethesda assay after plasmid-mediated gene transfer; format: in vivo, mouse
Procedure: as §2

[5] = system: CD4+ T-cells in splenocytes isolated from FVIII-primed HA mice; assay: Mannan inhibition in FVIII-specific T cell proliferation assay; format: cell-based, mouse
Procedure: as §1

D2108GKKWQTYRGN2118STGT2122 (DGKKWQTYRGN(Man6GlcNAc2)STGT; also: mannosylated; UniProt P00451 2127-2141, looked up, fragment) [2118MP3, mannosylated overlapping 15-mer Peptide 3]
effect of peptide on CD4+ T-cell proliferation (in words) [1]: little to no proliferation

FIX: Factor IX as a nonspecific antigen control [reference compound]
CD4+ T-cell proliferation response to protein antigen controls ([1]; increasing doses of FVIII, FIX as nonspecific antigen control): no response

K2111WQTYRGN2118STGTLMV2125 (KWQTYRGN(GlcNAc)STGTLMV; UniProt P00451 2130-2144, looked up, fragment) [2118GlcP1, Peptide 1 with a single GlcNAc residue at N2118]
effect of peptide on CD4+ T-cell proliferation (in words) [1]: negligible effects

K2111WQTYRGN2118STGTLMV2125 (KWQTYRGNSTGTLMV; non-glycosylated; UniProt P00451 2130-2144, looked up, fragment) [2118NGP1, non-glycosylated 15-mer FVIII peptide centered around site N2118]
effect of peptide on CD4+ T-cell proliferation (in words) [1]: negligible effects | effect of peptide on CD4+ T-cell proliferation (in words) ([1]; listed as NGP1): negligible effects; also recorded: nearly no proliferation

K2111WQTYRGN2118STGTLMV2125 [2118MP1]
CD4+ T-cell proliferation ([1]; peptide 10 μM): 4.2±1.3% | effect of peptide on CD4+ T-cell proliferation (in words) ([1]; listed as MP1): increased proliferation levels; also recorded: Enhanced proliferation

N2118Q: BDD-FVIII plasmid variant with N2118Q mutation in the C1 domain eliminating the 2118 glycosylation site (SEQ ID NO: 23)
FVIII functional activity levels in treated mouse plasma (average activity) (HA mice [2]): 223±77% | anti-FVIII IgG level compared to the other three groups (HA mice [3]; peak around day 56, after first plasmid transfer): lower antibody levels; also recorded: lower IgG level | drastic increase in anti-FVIII levels after the second challenge (HA mice [3]; second plasmid challenge on day 84, hydrodynamic injection): did not; also recorded: remained at a low level | inhibitor responses to FVIII following first plasmid challenge compared to WT BDD-FVIII plasmid (HA mice [4]; after first plasmid challenge): trend of decreased inhibitor responses | inhibitor titer / inhibitor responses post-second challenge (HA mice [4]; after second plasmid challenge, compared with WT BDD-FVIII): significantly lower inhibitor titer; also recorded: statistically significant lower inhibitor responses | inhibitor titers (Bethesda assay) compared to other groups (HA mice [4]; day 56, after first plasmid transfer): lower inhibitor titers; also recorded: Low inhibitor titers

T2114YRGN2118STGTLMVFFG2128 (TYRGN(Man6GlcNAc2)STGTLMVFFG; also: mannosylated; UniProt P00451 2133-2147, looked up, fragment) [2118MP2, mannosylated overlapping 15-mer Peptide 2]
CD4+ T-cell proliferation ([1]; peptide 1 μM): 2.9±0.6% | CD4+ T-cell proliferation ([1]; peptide 10 μM): 5.5±2.0% | effect of peptide on CD4+ T-cell proliferation (in words) ([1]; listed as MP2): Enhanced proliferation; also recorded: higher proliferation compared to MP1

T2114YRGN2118STGTLMVFFG2128 (TYRGNSTGTLMVFFG; non-glycosylated; UniProt P00451 2133-2147, looked up, fragment) [2118NGP2, non-glycosylated counterpart of 2118MP2]
effect of peptide on CD4+ T-cell proliferation (in words) [1]: nearly no proliferation

mannan
inhibition of T cell proliferation by mannan ([5]; in response to 0.1 U/ml FVIII): only partially inhibited | inhibition of T cell proliferation by mannan ([5]; in response to 1 U/ml or 10 U/ml FVIII): no inhibition | inhibition of T cell proliferation by mannan ([5]; in response to MP1 at 0.1 and 1 μM): inhibited | inhibition of T cell proliferation by mannan ([5]; in response to all three concentrations of 2118MP1): inhibited
